# Laboratory results published in patent US7767659B2, “Synthesis of naturally occurring ecteinascidins and related compounds” (Pharma Mar, S.A., priority 2002, dated 2010).
# pIC50: −log10 of the molar value.
# Assays:
# [1] = system: P-388 cells; assay: Inhibition of cell growth by counting cells; assay type: cell-based; conditions: Mus musculus, 72 h; p388 cells, three days of incubation
# Source text: (§1) The finality of these assays is to interrupt the growth of a “in vitro” tumor cell culture by means a continued exhibition of the cells to the sample to be testing.
# (§2) This form of the assay employs 24 well multidishes of 16 mm diameter (Bergeron, 1984; Schroeder, 1981). The tumor cell lines employed are: P-388 (ATCC CCL 46), suspension culture of a lymphoid neoplasm from a DBA/2 mouse; A-549 (ATCC CCL 185), monolayer culture of a human lung carcinoma; HT-29 (ATCC HTB-38), monolayer culture of a human colon carcinoma; MEL-28 (ATCC HTB-72), monolayer culture of a human melanoma and DU-145 (ATCC HTB-81), monolayer culture of a human prostate carcinoma.
# (§3) Cells were maintained, in logarithmic phase of growth in Eagle's Minimum Essential Medium, with Earle's Balanced Salts, with non-essential amino acids, with 2.0 mM L-Glutamine, without sodium bicarbonate (EMEM/neaa), supplemented with 10% Fetal Calf Serum (FCS), 10^−2 M. sodium bicarbonate and 0.1 U/1 penicillin G+0.1 g/l streptomycin sulfate.
# P-388 cells were seeded into 16 mm diameter wells at 1×10^4 cells per well in 1 ml aliquots of EMEM 5% FCS containing different concentrations of the sample to be tested. […]
# For quantifying the activity, after the incubation time, cells are trypsinized and counted in a Coulter Counter ZM. […]
# [2] = system: HT-29 cells; assay: Inhibition of cell growth by counting cells; assay type: cell-based; conditions: Homo sapiens, HT-29, 72 h; ht29 cells, three days of incubation
# Source text: as §1, §2, §3
# (§4) A-549, HT-29, MEL-28 and DU-145 cells were seeded into 16 mm diameter wells at 1×10^4 cells per well in 1 ml aliquots of EMEM 5% FCS containing different concentrations of the sample to be tested. A separate set of cultures without drug was seeded as control of growth, to ensure that cells remained in exponential phase of growth. All determinations are caring out in duplicate. After three days of incubation at 37° C., 5% CO2 in a 98% humid atmosphere cells were stained with 0.1% crystal violet. An approximately IC50 was determined by comparing the growth in wells with drug to the growth in wells control.
# (§5) For quantifying the activity, after the incubation time, cells are trypsinized and counted in a Coulter Counter ZM. All counts (net cells per well), represent the average of duplicate wells. % G, percent of growth relative to cultures without drug.
# (§6) For this technique, compounds which show IC50 values smaller than 1 μg/ml are selected to continue with further studies.
# [3] = system: A-549 cells; assay: Inhibition of cell growth by counting cells; assay type: cell-based; conditions: Homo sapiens, 72 h; a549 cells, three days of incubation
# Source text: as §1, §2, §3, §4, §5, §6
# [4] = system: MEL-28 cells; assay: Inhibition of cell growth by counting cells; assay type: cell-based; conditions: Homo sapiens, SK-MEL-28, 72 h; mel28 cells, three days of incubation
# Source text: as §1, §2, §3, §4, §5, §6
# [5] = system: A-498; assay: Inhibition of cells growth by colorimetric assay (SRB)
# Method in brief: (§7)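 Colorimetric SRB read (490 nm) on triplicate wells after 48 h at 37 °C, 5% CO2. Dose range 10 to 10^−8 μg/ml; 5×10^3 cells/well pre-attached 18 h.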
# [6] = system: SW620; assay: as above
# Method in brief: as §7
# [7] = system: MDA-MB-231; assay: as above
# Method in brief: as §7
# [8] = system: MCF-7; assay: as above
# Method in brief: as §7
# [9] = system: OVCAR-3; assay: as above
# Method in brief: as §7
# [10] = system: SK-MEL-28; assay: as above; conditions: Homo sapiens, SK-MEL-28, 48 h
# Method in brief: as §7
# [11] = system: DU-145; assay: as above; conditions: Homo sapiens, DU-145, 48 h
# Method in brief: as §7
# [12] = system: A-549; assay: cells; conditions: Homo sapiens, A549, 48 h
# Method in brief: as §7
# [13] = system: HT-29; assay: cells; conditions: Homo sapiens, HT-29, 48 h
# Method in brief: as §7
# [14] = system: DU-145 cells; assay: Inhibition of cell growth by counting cells; assay type: cell-based; conditions: Homo sapiens, DU-145, 72 h; du145 cells, three days of incubation
# Source text: as §1, §2, §3, §4, §5, §6
compound,measurement,setting,value
COc1c(C)cc2c(c1O)[C@@H]1C3[C@@H]4SCC(=O)C(=O)OC[C@@H](c5c6c(c(C)c(OC(C)=O)c54)OCO6)N3[C@@H](C#N)[C@H](C2)N1C (stereo partly drawn) [compound 16],pIC50,[1],7.79
same,pIC50,[2],7.79
same,pIC50,[3],7.79
same,pIC50,[4],7.79
COc1c(C)cc2c(c1O)C1C3[C@@H]4SCC(=O)C(=O)OC[C@@H](c5c6c(c(C)c(OC(C)=O)c54)OCO6)N3[C@@H](O)[C@H](C2)N1C (stereo partly drawn) [Et-594],A498 TGI,"[5]; A498, SRB, 48 hours exposure",3.27E−07 Molar
same,GI50,"[5]; Homo sapiens, A498, 48 h, read-out: A498 GI50",81.7 nM
same,CC50,"[5]; Homo sapiens, A498, 48 h, read-out: A498 LC50",11400 nM
same,GI50,"[6]; Homo sapiens, SW-620, 48 h, read-out: SW-620 GI50",32.7 nM
same,CC50,"[6]; Homo sapiens, SW-620, 48 h, read-out: SW-620 LC50",3270 nM
same,SW-620 TGI,"[6]; SW-620, SRB, 48 hours exposure",9.80E−08 Molar
same,GI50,"[7]; Homo sapiens, MDA-MB-231, 48 h, read-out: MB231 GI50",32.7 nM
same,CC50,"[7]; Homo sapiens, MDA-MB-231, 48 h, read-out: MB231 LC50",1630 nM
same,MB231 TGI,"[7]; MB231, SRB, 48 hours exposure",1.14E−07 Molar
same,GI50,"[8]; Homo sapiens, MCF7, 48 h, read-out: MCF GI50",32.7 nM
same,CC50,"[8]; Homo sapiens, MCF7, 48 h, read-out: MCF LC50",3270 nM
same,MCF TGI,"[8]; MCF, SRB, 48 hours exposure",9.80E−08 Molar
same,GI50,"[9]; Homo sapiens, OVCAR-3, 48 h, read-out: OVCAR GI50",32.7 nM
same,CC50,"[9]; Homo sapiens, OVCAR-3, 48 h, read-out: OVCAR LC50",16300 nM
same,OVCAR TGI,"[9]; OVCAR, SRB, 48 hours exposure",1.14E−07 Molar
same,GI50,[10]; read-out: MEL-28 GI50,32.7 nM
same,CC50,[10]; read-out: MEL-28 LC50,131 nM
same,IC (TGI),[10]; read-out: MEL-28 TGI,65.4 nM
same,GI50,[11]; read-out: DU145 GI50,32.7 nM
same,CC50,[11]; read-out: DU145 LC50,163 nM
same,IC (TGI),[11]; read-out: DU145 TGI,81.7 nM
same,GI50,[12]; read-out: A549 GI50,49 nM
same,CC50,[12]; read-out: A549 LC50,654 nM
same,IC (TGI),[12]; read-out: A549 TGI,131 nM
same,GI50,[13]; read-out: HT29 GI50,49 nM
same,CC50,[13]; read-out: HT29 LC50,1630 nM
same,IC (TGI),[13]; read-out: HT29 TGI,98 nM
COc1c(C)cc2c(c1O)[C@@H]1C3[C@@H]4SCC(NC(C)=O)C(=O)OC[C@@H](c5c6c(c(C)c(OC(C)=O)c54)OCO6)N3[C@@H](C#N)[C@H](C2)N1C (stereo partly drawn) [compound 19],pIC50,[1],9.12
same,pIC50,[14],9.12
same,pIC50,[2],9.12
same,pIC50,[3],9.12
same,pIC50,[4],9.12
